System: E. coli O157:H7 strain VS94
Type: cell-based, Escherichia coli O157:H7

## CC(C)NCC(O)COc1cccc2ccccc12 (stereo not drawn) [β-blocker, propanolol]
  % Adherence: 22%

— patent US10687543B2, “Probiotic bacterial molecules and their use in methods to treat/prevent infection by harmful bacteria and to provide nutritional health” (priority 2008, dated 2020)
